Results as given in patent US11479537B2, “T-type calcium channel inhibitor” (KINKI UNIVERSITY, priority 2017, dated 2022).
pIC50: −log10 of the molar value.

Legend:
[1] = test system: human T-type calcium channel; experiment: Whole-cell patch clamp measurement of T-type calcium channel inhibition (barium T-current); assay type: cell-based; settings: for Inhibition rate (%): EK293 cell forcibly expressing human T-type calcium channel, 6 cases; for T-type calcium channel inhibitory action (in words): whole-cell patch clamp, in vitro; for Ratio of IC50 value to IC50 value of 6-prenylnaringenin (%): IC50 as percentage of the IC50 of 6-prenylnaringenin, measured as in Example 1
Protocol: Using a human kidney cell-derived cell line, an EK293 cell, in which a human T-type calcium channel was forcibly expressed, the inhibitory effect of 6-prenylnaringenin on the T-type calcium channel was measured by the whole cell patch clamp method.
In the whole-cell patch clamp method, the following solutions are used as an external solution and an internal solution, the holding potential is set to −80 mV, and the barium current was measured as an inward current flow upon a potential jump from −80 mV to −20 mV. Here, in order to eliminate the influence of the high threshold activated-calcium channel, a value obtained by subtracting the current at 150 ms after the start of stimulation from the peak current was used as a T-channel current (T-current) for data analysis.
External Solution Composition
Aqueous solution containing the following: • 97 mM N-methyl-D-glucamine (NMDG); • 10 mM BaCl2; • 10 mM 4-(2-hydroxyethyl)-1-piperazine ethanesulfonic acid (HEPES); • 40 mM tetraethylammonium chloride (TEA-Cl); and • 5 mM glucose • (pH 7.4). Internal Solution Composition
Aqueous solution containing the following: • 4 mM MgCl2; • 140 mM CsCl; • 10 mM HEPES; and • 5 mM glycol ether diamine tetraacetic acid (EGTA) • (pH 7.2).
The inhibitory effect of the compound of the present invention on the T-type calcium channel was measured in the same manner as in Example 1, except that the compound of the present invention was used instead of 6-prenylnaringenin.

[2] = test system: PSNL-induced hyperalgesia; experiment: Partial sciatic nerve ligation (PSNL)-induced hyperalgesia, pain threshold by von Frey method; assay type: in vivo, ddY male mice; settings: 10 to 30 mg/kg intraperitoneally, mice 7 days after PSNL, versus vehicle group after PSNL
Protocol: PSNL-induced hyperalgesia was performed using ddY male mice under inhaled isoflurane anesthesia by incising the skin on the femur of the mouse and exposing ⅓ to ½ of the exposed sciatic nerve was completely ligated with a 8-0 suture. […] The pain threshold was measured by the von Frey method.
Compounds-40, 41, 45 and 47 were suspended in 5% aqueous carboxymethylcellulose and administered intraperitoneally using mice after 7 days of PSNL treatment, which is considered to be a chronic phase in which hyperalgesia is stable, and Pain thresholds were measured every minute. As controls, a group to which a solvent was administered after sham operation and a group to which a solvent and 6-prenylnaringenin were administered after induction of hyperalgesia by PNSL were provided.

Structure (SMILES)	Ratio of IC50 value to IC50 value of 6-prenylnaringenin (%) [1]	T-type calcium channel inhibitory action (in words) [1]	Effect on PSNL-induced hyperalgesia (pain threshold) [2]	other results
CC(C)=CCc1c(O)cc2c(c1O)C(=O)C[C@@H](c1ccc(O)cc1)O2 [6-prenylnaringenin, 6-Prenylnaringenin, reference compound]	–	excellent T-type calcium channel inhibitory action	–	pIC50 ([1]; calculated by GraphPad Prism from the results of Example 1): 6.10; Inhibition rate (%) ([1]; compound concentration 300 nM): 0%; Inhibition rate (%) ([1]; compound concentration 1000 nM): 82.7%; Inhibition rate (%) ([1]; compound concentration 3000 nM): 99.0%
CC(C)=CCc1c(O)cc2c(c1O)C(=O)CC(c1ccccc1O)O2 (stereo not shown) [Compound-33, 5,7-dihydroxy-2-(2-hydroxy-phenyl)-6-(3-methyl-but-2-enyl)-chroman-4-one]	12.2%	–	–	–
CC(C)CCc1c(O)cc2c(c1O)C(=O)CC(c1ccc(O)cc1)O2 (stereo not shown) [Compound-39, 5,7-dihydroxy-2-(4-hydroxy-phenyl)-6-(3-methyl-butyl)-chroman-4-one]	10.6%	–	–	–
CC(C)=CCc1c(O)cc2c(c1O)C(=O)CC(c1c(O)cccc1O)O2 (stereo not shown) [Compound-42, 2-(2,6-dihydroxy-phenyl)-5,7-dihydroxy-6-(3-methyl-but-2-enyl)-chroman-4-one]	72.3%	–	–	–
CC(C)=CCc1ccc2c(c1O)C(=O)CC(c1ccccc1O)O2 (stereo not shown) [Compound-43, 5-hydroxy-2-(2-hydroxy-phenyl)-6-(3-methyl-but-2-enyl)-chroman-4-one]	26.6%	–	–	–
CCC(=CCc1c(O)cc2c(c1O)C(=O)CC(c1ccccc1O)O2)CC (stereo not shown) [Compound-45, 6-(3-ethyl-pent-2-enyl)-5,7-dihydroxy-2-(2-hydroxy-phenyl)-chroman-4-one]	2.3%	excellent T-type calcium channel inhibitory activity in vitro	significantly suppressed hyperalgesia	–

Now from value to compound, other results behind:

Ratio of IC50 value to IC50 value of 6-prenylnaringenin (%) [1]	Structure (SMILES)	T-type calcium channel inhibitory action (in words) [1]	Effect on PSNL-induced hyperalgesia (pain threshold) [2]	other results
12.5%	CC(C)=CCc1c(O)cc2c(c1O)C(=O)CC(c1cccc(O)c1)O2 (stereo not shown) [Compound-34, 5,7-dihydroxy-2-(3-hydroxy-phenyl)-6-(3-methyl-but-2-enyl)-chroman-4-one]	–	–	–
87.5%	CC(C)=CCc1c(O)cc2c(c1O)C(=O)CC(c1ccc(O)c(O)c1)O2 (stereo not shown) [Compound-36, 2-(3,4-dihydroxy-phenyl)-5,7-dihydroxy-6-(3-methyl-but-2-enyl)-chroman-4-one]	–	–	–
7.7%	CCC(=CCc1c(O)cc2c(c1O)C(=O)CC(c1ccc(O)cc1)O2)CC (stereo not shown) [Compound-40, 6-(3-ethyl-pent-2-enyl)-5,7-dihydroxy-2-(4-hydroxy-phenyl)-chroman-4-one]	excellent T-type calcium channel inhibitory activity in vitro	significantly suppressed hyperalgesia	–
9.0%	O=C1CC(c2ccc(O)cc2)Oc2cc(O)c(CC=C3CCCC3)c(O)c21 (stereo not shown) [Compound-41, 6-(2-cyclopentylidene-ethyl)-5,7-dihydroxy-2-(4-hydroxy-phenyl)-chroman-4-one]	excellent T-type calcium channel inhibitory activity in vitro	significantly suppressed hyperalgesia	–
15.0%	CCC(CC)CCc1c(O)cc2c(c1O)C(=O)CC(c1ccc(O)cc1)O2 (stereo not shown) [Compound-46, 6-(3-ethyl-pentyl)-5,7-dihydroxy-2-(4-hydroxy-phenyl)-chroman-4-one]	–	–	–
8.1%	O=C1CC(c2ccc(O)cc2)Oc2cc(O)c(CCC3CCCC3)c(O)c21 (stereo not shown) [Compound-47, 6-(2-cyclopentyl-ethyl)-5,7-dihydroxy-2-(4-hydroxy-phenyl)-chroman-4-one]	excellent T-type calcium channel inhibitory activity in vitro	significantly suppressed hyperalgesia	–
54.8%	CCCC(=CCc1c(O)cc2c(c1O)C(=O)CC(c1ccc(O)cc1)O2)CCC (stereo not shown) [Compound-48, 5,7-dihydroxy-2-(4-hydroxy-phenyl)-6-(3-propyl-hex-2-enyl)-chroman-4-one]	–	–	–
